Laboratory results published in US10933038B2, “Use of (benzenesulfonamido) benzamide compounds for inhibiting liver fibrosis” (Hebei Medfaith Pharmaceutical Technology Co., Ltd., priority 2015, dated 2021).

Key:
COL1A1 promoter = assay: dual-luciferase reporter assay of COL1A1 promoter activity in LX2 cells; format: cell-based, human; conditions: TGF-β1 2 ng/ml, 1, 5 and 10 μmol/L, 24 h
Description: At 37° C., 5% CO2, human hepatic stellate cells LX2 were cultured in DMEM medium containing 10% fetal bovine serum (Gibco). After the cells reached a confluence of about 95%, the cells were spread onto a 96-well plate at 2×10^4 cells per well. After the cells reached a confluence of about 90%, the cells were subjected to serum-free culture in DMEM medium (Gibco) containing no fetal bovine serum for 24 h. […] The cells were further cultured for 24 h. In accordance with the operations described in the instruction of Dual-Glo™ Luciferase Assay System, the medium was discarded, and the cells were washed with PBS once. Cells were lysed by the addition of 1×PLB (20 μL/well) (within 15 min), luciferase substrate (50 μL/well) was added for assay, and a stop solution (50 μL/well) was added for assay.

TGF-β1-induced LX2 cells [1] = assay: real-time PCR assay in TGF-β1-induced LX2 cells; format: cell-based, human; conditions: TGF-β1 (2 ng/ml)-induced LX2 cells, 1, 5 and 10 μmmol/L, 24 h
Description: (§1) In DMEM (Gibco) medium containing 10% fetal bovine serum, LX2 cells were cultured at 37° C., 5% CO2. The cells were spread on a 6-well plate at 1×10^5 cells per well. After culture for 24 h, the original medium was discarded, the cells were washed with PBS once, and DMEM (Gibco) medium without 10% fetal bovine serum was added. […] After further culture for 24 h, the samples were taken.
In accordance with the TRizol method, the total RNA in LX2 cells were extracted, and in accordance with the operations described in the instruction of Roche Transcriptor First Strand cDNA Synthesis Kit, the total RNA of LX2 was reverse transcribed into cDNA. The cDNA obtained, sterile water, Roche FastStart Universal Probe Master (Rox) and ABI TaqMan probes (COL1A1, TGF-β1, MMP2) were used to prepare a 20 μL reaction system, which was analyzed by ABI 7500 Fast Real-Time PCR System.

TGF-β1-induced LX2 cells [2] = assay: Western blot assay in TGF-β1-induced LX2 cells; format: cell-based, human; conditions: TGF-β1 (2 ng/ml)-induced LX2 cells, 1, 5 and 10 μmmol/L, 24 h
Description: as §1
Proteins in LX2 cells were extracted with RAPI lysis solution (containing 1% PMSF), and the protein concentration was determined by BCA method. The sample was loaded at 20 μg/20 μL, subjected to polyacrylamide gel electrophoresis, transferred to a membrane, blocked with 5% skim milk, incubated with a primary antibody, washed with PBST, incubated with a secondary antibody, and imaged with ChemiImager 5500 imaging system.

Kunming mice = assay: safety in Kunming mice, single intragastric dose, 14 days observation; format: in vivo; conditions: 50-2000 mg/kg; for change in body weight (relative body weight Day 14/Day 1): 14 days after administration; for death / signs of intoxication: 14 days observation
Description: In the example, the compounds 16-4 and 17-15 were tested for their safety in Kunming mice.
Kunming mice (with a body weight of 18-22 g) were randomly divided into control group, 16-4 administration group, and 17-15 administration group, with 4 mice for each group, administered at a dose of 0 mg/kg, 50 mg/kg, 500 mg/kg, 1000 mg/kg and 2000 mg/kg. At the first day of experiment, drugs were intragastrically administered to 16-4 administration group and 17-15 administration group, and normal saline was administered to control group. The body weight and physical conditions of mice (for example, being short of breath or not, having bleeding spots in skin or not, etc.) and whether mice died or not were recorded every day. After observation for 14 days, the mice were sacrificed.

[3] = tested on: ANIT-induced liver injury; assay: alpha-naphthylisothiocyanate (ANIT)-induced liver injury model, HE staining; format: in vivo, mouse; conditions: 400 mg/kg intragastric, ANIT 75 mg/kg, 48 h after induction
Description: After further administration for 2 days (i.e. after induction with ANIT for 48 h), liver tissues were harvested, and subjected to pathological section and HE staining.

BDL model rat [4] = assay: serum liver function in BDL model rat; format: in vivo; conditions: 100 mg/kg i.p. once a day for 14 days
Description: (§2) SD male rats (with a body weight of 180-200 g) were randomly divided into sham operation group, BDL model group and 16-4 administration group, wherein sham operation group included 6 rats, BDL model group included 8 rats, and 16-4 administration group included 6 rats. Animals were fasted for 12 hours before surgery. After anesthetization with isoflurane, the abdomen of rat was opened under aseptic conditions, the liver was lifted, the duodenum was pulled aside, and 2-3 cm common bile duct was separate. Ligations were performed twice with silk thread No. 000 at the place proximal to duodenum and the place proximal to porta hepatis, respectively. The common bile duct was cut off at the middle of the two ligation places. After the liver was put back, the cut was sutured. In sham operation group, the abdomen was just opened, and then sutured. After recovery from anesthesia, the animals were subjected to normal diet, with free access to water. 2 days after surgery, the compound 16-4 (100 mg/kg) was intraperitoneally injected to 16-4 administration group, and normal saline was intraperitoneally injected to sham operation group and BDL model group, once a day. After administration for 14 days, samples such as urine, blood, bile, liver, kidney and ileum were collected from the animals after being fasted for 12 hours.
Blood samples were taken from rats of each group in Example 6, and the rats were fasted for 12 h before taking samples. The rats were anesthetized with 10% chloral hydrate, and blood was collected via aorta ventralis, on standing at room temperature for 1 h, and centrifuged at 3000 rpm for 5 min. The serum was tested for serum biochemical indexes.

BDL model rat [5] = assay: HE staining of liver tissue of BDL rats; format: in vivo; conditions: 100 mg/kg i.p., 14 days
Description: as §2
The liver tissue samples were taken from rats of each group in Example 6, and the rats were fasted for 12 hours before taking samples. The rats were anesthetized with 10% chloral hydrate and the liver tissue was taken. The hepatic lobar tissue blocks were cut off and fixed in 4% neutral formaldehyde solution. By carrying out the steps such as dehydration, paraffin embedding, slicing and baking, paraffin slices were made. Hematoxylin-eosin (HE) staining solution was used for staining, and changes in pathological structure of rat liver tissue were observed.

BDL model rat [6] = assay: Masson staining of liver tissue of BDL rats; format: in vivo; conditions: 100 mg/kg i.p., 14 days
Description: as §2, with “hours. […]” for “hours.”

BDL model rat [7] = assay: hydroxyproline content in liver tissue of BDL rats; format: in vivo; conditions: 100 mg/kg i.p., 14 days
Description: as §2, with “2 days after surgery, the compound 16-4 (100 mg/kg) was intraperitoneally injected to 16-4 administration group, and normal saline was intraperitoneally injected to sham operation group and BDL model group, once a day. After administration for 14 days, samples such as urine, blood, bile, liver, kidney and ileum were collected from the animals after being fasted for 12 hours.” left out
(2) Hydroxyproline is specific to collagen fibrils, and the content of hydroxyproline can reflect the extent of liver fibrosis. Liver tissue samples (80-100 mg) were taken from the rats of each group in Example 6, and in accordance with the instruction of Hydroxyproline Assay Kit (purchased from Nanjing Jiancheng Bioengineering Institute), the content of hydroxyproline in the liver tissues was determined.

BDL model rat [8] = assay: real-time PCR of genes associated with liver fibrosis in liver tissue of BDL rats; format: in vivo; conditions: 100 mg/kg i.p., 14 days
Description: as §2, with “2 days after surgery, the compound 16-4 (100 mg/kg) was intraperitoneally injected to 16-4 administration group, and normal saline was intraperitoneally injected to sham operation group and BDL model group, once a day. After administration for 14 days, samples such as urine, blood, bile, liver, kidney and ileum were collected from the animals after being fasted for 12 hours.” left out
Liver tissues (80-100 mg) were taken from the rats of each group in Example 6, and 1 mL TRizol was added. […] The cDNA obtained, sterile water, Roche FastStart Universal Probe Master (Rox) and ABI TaqMan probes were used to prepare a 20 μL reaction system, which was analyzed by ABI 7500 Fast Real-Time PCR System.

BDL model rat [9] = assay: Western blot of proteins associated with liver fibrosis in liver tissue of BDL rats; format: in vivo; conditions: 100 mg/kg i.p., 14 days
Description: as §2, with “After administration for 14 days, samples such as urine, blood, bile, liver, kidney and ileum were collected from the animals after being fasted for 12 hours.” left out
Liver tissues (80-100 mg) were taken from the rats of each group in Example 6, and 1 mL RAPI lysis solution (containing 1% PMSF) was added. […] The supernatant was taken, and the protein concentration was determined by BCA method. […]

Row | Structure (SMILES) | activity of COL1A1 promoter (relative luciferase activity) (COL1A1 promoter) | expression levels of mRNA of COL1A1, TGF-β1 and MMP2 (TGF-β1-induced LX2 cells [1]) | expression of COL1A1, TGF-β1, MMP2 and α-SMA protein (TGF-β1-induced LX2 cells [2]) | change in body weight (relative body weight Day 14/Day 1) (Kunming mice) | death (Kunming mice) | signs of intoxication (Kunming mice) | liver injury (HE staining of liver tissue slices) compared to ANIT-induced group [3] | liver function of BDL rats (BDL model rat [4]) | alanine aminotransferase ALT (BDL model rat [4]; serum, BDL rat, n = 6) | alkaline phosphatase ALP (BDL model rat [4]; serum, BDL rat, n = 6) | γ-glutamyltransferase γ-GGT (BDL model rat [4]; serum, BDL rat, n = 6) | bile duct proliferation (BDL model rat [5]) | pathological structure of the liver tissues (BDL model rat [5]) | tissue necrosis (BDL model rat [5]) | fibrosis of liver tissues (Masson staining) (BDL model rat [6]) | content of hydroxyproline in rat liver tissues (BDL model rat [7]) | expression of genes associated with liver fibrosis (COL1A1, TGF-β1, MMP2, α-SMA (ACTA2), TIMP1, TIMP2 and SPP1) (BDL model rat [8]) | expression of COL1A1, TGF-β1, MMP2 and α-SMA protein (BDL model rat [9])
1 | O=C(Nc1cc(Cl)c(Cl)c(Cl)c1)c1ccccc1NS(=O)(=O)c1cccc([N+](=O)[O-])c1 [16-4, N-(3,4,5-trichlorophenyl)-2-(3-nitrobenzenesulfonamido) benzamide] | inhibit the activity of COL1A1 promoter in a dose-dependent manner | significantly inhibit | significantly inhibit | no significant decrease in body weight | no death occurred | no signs of intoxication were observed | had the liver injury improved | could improve the liver function | 68.20 ± 11.86 U/L | 383.60 ± 56.45 U/L | 27.40 ± 10.26 U/L | significantly inhibited bile duct proliferation | significantly improve | significantly reduced tissue necrosis | significantly inhibit the fibrosis of liver tissues | significantly reduce | significantly reduce | significantly inhibit
2 | O=C(Nc1ccc(Cl)c(Cl)c1)c1ccccc1NS(=O)(=O)c1cccc(OC(F)(F)F)c1 [17-15, N-(3,4-dichlorophenyl)-2-(3-trifluoromethoxybenzenesulfonamido) benzamide] | inhibit the activity of COL1A1 promoter in a dose-dependent manner | significantly inhibit | significantly inhibit | no significant decrease in body weight | no death occurred | no signs of intoxication were observed | – | – | – | – | – | – | – | – | – | – | – | –
